For assay [1], the system named is striatal, cortical, and hippocampal neurons. The assay is described as follows: SP-induced cell death in primary striatal, cortical and hippocampal neurons, trypan blue viability and staining. The format is cell-based, rat. Conditions: compared with SP. As to the method: Rat neuronal primary cell cultures were also used to assay for inducers and inhibitors of paraptosis. Briefly, primary striatal, cortical and hippocampal cultures were prepared from 17-day-old Sprague-Dawley rat embryos (B&K). The tissue was dissected, minced and trypsinized for five minutes using 0.25% trypsin (Cell Grow). After the addition of 10% horse serum (Life Technologies) to inhibit the trypsin, the cell suspension was triturated 15–20 times with a 10 ml syringe and centrifuged for five minutes at 800×g. The pellet was resuspended in MEM-PAK (UCSF Cell Culture facility), supplemented with 2.02 gm glucose, 2 mM GLUTAMAX™ (Life Technologies) and penicillin/streptomycin (100 U/ml). The suspension was filtered through a […] cell strainer and the final culture medium contained 5% horse serum. Subsequently, 3-4×10^5 cells per Cm^2 were seeded onto either poly-D-lysine precoated 8-well chamber slides (Becton-Dickson Labware) or 96 well plates precoated with […] of poly-D-lysine (Sigma) in water. After 30 minutes of incubation time, unattached cells were removed together with the medium and replaced with glucose enriched MEM-PAK plus 5% horse serum. The cultures were then incubated at 37° C. in 95% air 5% carbon dioxide with 95% humidity. Cultures were used for experiments between day 1 and day 7 when glial contamination was at a minimum.
Primary neuronal cells were prepared as described in Example I. SP (SIGMA) at a concentration of 0.1 nM–100 μM was added 24–48 hrs after seeding, in the presence of 2.5% horse serum. When the cultures were maintained for more than 5 days, 10 μM cytosine arabinoside was added for 24 hours, beginning 3 days after plating the cells. Viability was quantified by trypan blue staining of the total cell population.
The following compounds were added at the same time as SP in the indicated experiments: 5 nM L-732, 138; 1 nM L-733,060; 1 μg/ml Actinomycin D or 1 μg/ml Cycloheximide. All of these compounds were obtained from SIGMA. The caspase inhibitors zVAD.fmk and BAF were added at 50 μM and obtained from Enzyme System Products, Livermore, Calif.
Either neuronal primary cultures or human embryonic kidney 293T cells were fixed with 4% paraformaldehyde and stained with 0.5 μg/ml DAPI (Molecular Probes) or Hoechst(SIGMA). […]
The protein kinase inhibitors were added 30 min before SP exposure at the following concentrations: 10 μM Rp-8-Br-cAMPS (adenosin 3′,5′-cyclic monophosphorothioate, 8-bromo-, Rp-isomer, sodium salt) which is a PKA inhibitor; 50 nM Calphostin C, which is a PKC inhibitor; 10 μM PD 98059 which is a MAPKK (MEK) inhibitor. These compounds were obtained from Calbiochem. Viability was quantified by trypan blue staining of the total cell population.

Assay [2] deals with neurokinin-1 receptor (NK1R) (Rattus norvegicus, UniProt P14600). Conditions: cited from earlier work.

No end group written: not given here.

Chain of neurokinin-1 receptor (NK1R) (P14600 whole entry): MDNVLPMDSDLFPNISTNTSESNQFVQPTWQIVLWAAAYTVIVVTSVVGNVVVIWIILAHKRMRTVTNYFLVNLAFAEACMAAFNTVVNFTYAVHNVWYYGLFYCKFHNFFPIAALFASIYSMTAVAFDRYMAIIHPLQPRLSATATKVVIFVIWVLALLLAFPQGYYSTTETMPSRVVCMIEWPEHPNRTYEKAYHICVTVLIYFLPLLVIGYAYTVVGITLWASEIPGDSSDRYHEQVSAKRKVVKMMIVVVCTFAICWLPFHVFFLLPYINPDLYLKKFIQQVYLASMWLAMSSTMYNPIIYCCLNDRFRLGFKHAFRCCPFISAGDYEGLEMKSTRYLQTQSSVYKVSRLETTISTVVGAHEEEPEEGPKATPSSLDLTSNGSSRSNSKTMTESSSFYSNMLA

Turning to “SP 6–11: truncated form of SP containing amino acids 6 through 11 of the SP polypeptide (QFFGLM; ends and bridges not checked)”, the “induction of cell death by NK1R agonists” value in assay [1] is reported as “able to induce cell death as well as SP”. Also, the “affinity for NK1R” value in assay [2] is “good affinity”.

Source of the values: patent US6994981B2, “Modulators of paraptosis and related methods” (The Buck Institute, priority 2002, dated 2006).
